Values joined by “and” are separate entries in the source; they are usually repeats but may differ in a detail not shown here. Equal entries are not always repeated. Inconclusive results and toxic doses are left out. No stated cut-off is given here; in the data, active means T/C of 150% or more; inactive means T/C below 125%.
System: L1210 leukemia ip in BDF1 mice, survival T/C
Test: NCI In Vivo Anticancer Drug Screen. Data for tumor model L1210 Leukemia (intraperitoneal) in B6D2F1 (BDF1) mice
Details: endpoint: mean survival time, higher = longer survival
In short: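 Ratio derived from survival: compound-dosed mice over vehicle-dosed mice, all bearing a transplantable tumor.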

[1] = dose: 100.0 mg/kg/injection, schedule: Q04DX003 (ip), vehicle: saline with Tween-80
[2] = dose: 200.0 mg/kg/injection, schedule: Q04DX003 (ip), vehicle: saline with Tween-80
[3] = dose: 400.0 mg/kg/injection, schedule: Q04DX003 (ip), vehicle: saline with Tween-80
[4] = dose: 25.0 mg/kg/injection, schedule: Q04DX003 (ip), vehicle: Klucel (hydroxypropylcellulose) (HPC)
[5] = dose: 50.0 mg/kg/injection, schedule: Q04DX003 (ip), vehicle: Klucel (hydroxypropylcellulose) (HPC)
[6] = dose: 50.0 mg/kg/injection, schedule: Q01DX009 (ip), vehicle: saline with Tween-80
[7] = dose: 100.0 mg/kg/injection, schedule: Q01DX009 (ip), vehicle: saline with Tween-80
[8] = dose: 75.0 mg/kg/injection, schedule: Q01DX001 (ip), vehicle: saline
[9] = dose: 150.0 mg/kg/injection, schedule: Q01DX001 (ip), vehicle: saline
[10] = dose: 100.0 mg/kg/injection, schedule: Q04DX003 (ip), vehicle: Klucel (hydroxypropylcellulose) (HPC)
[11] = dose: 200.0 mg/kg/injection, schedule: Q04DX003 (ip), vehicle: Klucel (hydroxypropylcellulose) (HPC)
[12] = dose: 400.0 mg/kg/injection, schedule: Q04DX003 (ip), vehicle: Klucel (hydroxypropylcellulose) (HPC)
[13] = dose: 100.0 mg/kg/injection, schedule: Q01DX001 (ip), vehicle: saline
[14] = dose: 200.0 mg/kg/injection, schedule: Q01DX001 (ip), vehicle: saline
[15] = dose: 400.0 mg/kg/injection, schedule: Q01DX001 (ip), vehicle: saline
[16] = dose: 25.0 mg/kg/injection, schedule: Q01DX009 (ip), vehicle: Klucel (hydroxypropylcellulose) (HPC)
[17] = dose: 50.0 mg/kg/injection, schedule: Q01DX009 (ip), vehicle: Klucel (hydroxypropylcellulose) (HPC)
[18] = dose: 100.0 mg/kg/injection, schedule: Q01DX009 (ip), vehicle: Klucel (hydroxypropylcellulose) (HPC)
[19] = dose: 200.0 mg/kg/injection, schedule: Q01DX009 (ip), vehicle: Klucel (hydroxypropylcellulose) (HPC)
[20] = dose: 400.0 mg/kg/injection, schedule: Q01DX009 (ip), vehicle: Klucel (hydroxypropylcellulose) (HPC)
[21] = dose: 200.0 mg/kg/injection, schedule: Q01DX009 (ip), vehicle: saline with Tween-80

Measured: T/C

CCCCOC(=O)CSC(=O)C(O)c1ccccc1 (centres undefined)
inactive: [1] 105 % of control | [2] 101 % of control | [3] 103 % of control

O=C1c2ccccc2C(=O)N1c1c[nH]c(=O)[nH]c1=O
inactive: [4] 95 % of control | [5] 93 % of control

NCc1cc(=O)[nH]c(=O)[nH]1
inactive: dose: 100.0 mg/kg/injection, schedule: Q04DX003 (ip), vehicle: saline 104 % of control | dose: 400.0 mg/kg/injection, schedule: Q04DX003 (ip), vehicle: saline 89 % of control

Cc1cc(OCC(=O)O)c(Cl)cc1Cl
inactive: [6] 92 % of control | [7] 99 % of control

O=C1C(c2ccccc2)=CC(c2ccccc2)=C1c1ccccc1
inactive: dose: 50.0 mg/kg/injection, schedule: Q01DX001 (ip), vehicle: carboxymethylcellulose (CMC) 91 % of control | dose: 100.0 mg/kg/injection, schedule: Q01DX001 (ip), vehicle: carboxymethylcellulose (CMC) 91 % of control | dose: 200.0 mg/kg/injection, schedule: Q01DX001 (ip), vehicle: carboxymethylcellulose (CMC) 94 % of control | dose: 400.0 mg/kg/injection, schedule: Q01DX001 (ip), vehicle: carboxymethylcellulose (CMC) 94 % of control

Oc1c(CN2CCCC2)cc(Nc2nc(/C=C/c3ccc(Cl)cc3)nc(Cl)c2-c2ccc(Cl)cc2)cc1CN1CCCC1
inactive: [8] 96 % of control | dose: 75.0 mg/kg/injection, schedule: Q04DX003 (ip), vehicle: Klucel (hydroxypropylcellulose) (HPC) 98 % of control | [9] 96 % of control | dose: 150.0 mg/kg/injection, schedule: Q04DX003 (ip), vehicle: Klucel (hydroxypropylcellulose) (HPC) 91 % of control | dose: 300.0 mg/kg/injection, schedule: Q01DX001 (ip), vehicle: saline 93 % of control | dose: 300.0 mg/kg/injection, schedule: Q04DX003 (ip), vehicle: Klucel (hydroxypropylcellulose) (HPC) 91 % of control

Fc1ccc(Cl)c2cccnc12
inactive: [8] 105 % of control | [9] 102 % of control

c1ccc2c3c(ccc2c1)CCC/C3=N\N=C1/CCCc2ccc3ccccc3c21
inactive: [10] 90 % of control | [11] 98 % of control | [12] 92 % of control

COC1OCCCC1OC(=O)c1ccccc1 (centres undefined)
inactive: dose: 50.0 mg/kg/injection, schedule: Q01DX001 (ip), vehicle: saline 109 % of control | [13] 103 % of control | [14] 105 % of control | [15] 94 % of control

CC(C)C(C#N)c1ccccc1 (centres undefined)
inactive: dose: 12.5 mg/kg/injection, schedule: Q01DX009 (ip), vehicle: Klucel (hydroxypropylcellulose) (HPC) 97 % of control | [16] 100 % of control | [4] 96 % of control | [17] 97 % of control | [5] 98 % of control

[N-]=[N+]=Nc1ccc(S(N)(=O)=O)cc1
inactive: [13] 99 % of control | [14] 94 % of control | [15] 93 % of control

CC12CCCCCCC1O2 (centres undefined)
inactive: dose: 75.0 mg/kg/injection, schedule: Q01DX001 (ip), vehicle: other 100 % of control | dose: 150.0 mg/kg/injection, schedule: Q01DX001 (ip), vehicle: other 89 % of control | dose: 300.0 mg/kg/injection, schedule: Q01DX001 (ip), vehicle: other 95 % of control

CC(=O)NS(=O)(=O)CCCC[n+]1c(C)oc2ccc(-c3ccccc3)cc21
inactive: dose: 100.0 mg/kg/injection, schedule: Q04DX003 (sc), vehicle: olive oil, sesame oil, peanut oil 98 % of control | dose: 200.0 mg/kg/injection, schedule: Q04DX003 (sc), vehicle: olive oil, sesame oil, peanut oil 100 % of control | dose: 400.0 mg/kg/injection, schedule: Q04DX003 (sc), vehicle: olive oil, sesame oil, peanut oil 100 % of control

O=C(/C(=N/O)c1ccccc1)c1ccccc1
inactive: dose: 50.0 mg/kg/injection, schedule: Q01DX001 (ip), vehicle: other 103 % of control | dose: 100.0 mg/kg/injection, schedule: Q01DX001 (ip), vehicle: other 97 % of control | dose: 200.0 mg/kg/injection, schedule: Q01DX001 (ip), vehicle: other 105 % of control | dose: 400.0 mg/kg/injection, schedule: Q01DX001 (ip), vehicle: other 100 % of control

CCCC1(C)COB(c2ccc(C)cc2)OC1
inactive: [16] 102 % of control | [17] 105 % of control | [5] 92 % of control | [18] 114 % of control | [10] 101 % of control | [19] 122 % of control | [11] 92 % of control | [20] 88 % of control | [12] 95 % of control

O=C(O)CC(C(=O)O)=C1CCCCC1
inactive: dose: 50.0 mg/kg/injection, schedule: Q01DX009 (ip), vehicle: saline 98 % of control | dose: 100.0 mg/kg/injection, schedule: Q01DX009 (ip), vehicle: saline 98 % of control | dose: 200.0 mg/kg/injection, schedule: Q01DX009 (ip), vehicle: saline 100 % of control

S=C(N/N=C/c1ccc(-c2ccccc2)cc1)Nc1ccccc1
inactive: [7] 86 % of control | [1] 97 % of control | [21] 88 % of control | [2] 100 % of control | [3] 94 % of control

Cc1c(C)c(Br)c(C)c(-c2c(O)c(Br)c(-c3c(C)c(C)c(C)c(Br)c3C)c(O)c2Br)c1C
inactive: [1] 97 % of control | [2] 90 % of control

Oc1c(Cl)cc(N=Cc2ccc(N(CCCCl)CCCCl)cc2)cc1Cl
inactive: [10] 101 % of control | [11] 101 % of control | [12] 102 % of control

COc1ccc(CCNC(=O)Cc2ccccc2)cc1OC
inactive: [6] 90 % of control | [7] 93 % of control | [1] 92 % of control | [21] 94 % of control and 96 % of control | [2] 92 % of control | dose: 400.0 mg/kg/injection, schedule: Q01DX009 (ip), vehicle: saline with Tween-80 99 % of control

CCCCSP(=S)(OCC)OCC
inactive: [1] 101 % of control | [2] 88 % of control

CCCCCCCCCCCCCCCCCC(=O)[O][Sn]([CH2]CCC)([CH2]CCC)[O]C(=O)CCCCCCCCCCCCCCCCC
inactive: dose: 6.25 mg/kg/injection, schedule: Q04DX003 (ip), vehicle: other 100 % of control | dose: 12.5 mg/kg/injection, schedule: Q04DX003 (ip), vehicle: other 114 % of control | dose: 25.0 mg/kg/injection, schedule: Q04DX003 (ip), vehicle: other 101 % of control | dose: 50.0 mg/kg/injection, schedule: Q04DX003 (ip), vehicle: other 101 % of control

CCOC(=O)Nc1ccc(C)c(Cl)c1
inactive: [18] 105 % of control | [19] 108 % of control | [20] 103 % of control

CC(=O)c1ccc(OCC(O)CN2CCN(c3ccccc3)CC2)c(C)c1 (centres undefined)
inactive: [1] 108 % of control | [2] 108 % of control | [3] 101 % of control

c1ccc(-c2cc(-c3ccncc3)c(-c3ccccc3)nn2)cc1
inactive: dose: 100.0 mg/kg/injection, schedule: Q04DX003 (ip), vehicle: gum acacia 102 % of control | dose: 200.0 mg/kg/injection, schedule: Q04DX003 (ip), vehicle: gum acacia 96 % of control | dose: 400.0 mg/kg/injection, schedule: Q04DX003 (ip), vehicle: gum acacia 96 % of control

Reference: PubChem BioAssay AID248 (DTP/NCI, 2004)
